Read-outs that look alike come from different tables or passages of the source. No end group written: not given here.
Tests used:
[1] = test system: Staphylococcus aureus (ATCC 6538P)
Experimental: (§1) A microdilution method was used [8]: paired dilutions of compounds in LB broth, arranged in 96-well plates were inoculated with around 1 × 10^5 CFU Pseudomonas aeruginosa (ATCC 9027) or Staphylococcus aureus (ATCC 6538P). After overnight incubation at 37C, absorbance at 620 nm (A620) was assessed, and the IC50 concentrations determined.

HSV1 [2] = test system: HSV1
[3] = test system: Pseudomonas aeruginosa (ATCC 9027)
Experimental: as §1

human red blood cells [4] = test system: human red blood cells; set-up: method as in PMID 17681018; conditions: cited from earlier work
human red blood cells [5] = assay type: cell-based
Experimental: Freshly washed human red blood cells were added to peptides diluted in PBS in 96-well plates (20 × 10^6 red blood cells were added per well). After 2 h incubation at 37°C, plates were centrifuged (3000 g, 5 min) and 80 μl of supernatant transferred to further 96-well plates containing 0.75% ammonium hydroxide in distilled water.

TZMbl cells = assay type: cell-based
Experimental: Cytotoxicity assessment - Vero cells growing in 96-well plates were treated with various peptide concentrations. After 48 h incubation, 25 μl 3-(4,5-dimethylthiazol-2-yl)-2,5-diphenyltetrazolium bromide (MTT) in 0.5% medium was added (1 mg/ml final concentration), and cells incubated for 2 h. Growth medium was then carefully removed and formazan crystals solubilised in […] of DMSO, prior to reading absorbance at 570 nm (A570). TZMbl cytotoxicity was assessed using the WST-1 cell proliferation reagent (Roche). Experiments were performed as for the anti-infectivity assay, WST-1 was diluted 1/10 into each well at various time points and cell proliferation was measured by absorbance at 450 nm.

HSV1 [6] = conditions: earlier reports, organism not specified at this place; ref [9]; cited from earlier work
Source text: In the second group of peptides, apoEdp - used as a positive control - was active against all three organisms, as found in our previous studies.

[7] = read-out: IC50 Concentration (μM) S. aureus, turbidity (A620) of serial dilutions in LB broth, ~1 × 10^5 CFU, overnight 37C, averages for several experiments
[8] = read-out: IC50 Concentration (μM) HSV1, plaque reduction assay, Vero cells, 90 PFU/well, peptide present 1 h, plaques counted after 2 d, averages for several experiments
[9] = read-out: IC50 Concentration (μM) P. aeruginosa, turbidity (A620) of serial dilutions in LB broth, ~1 × 10^5 CFU, overnight 37C, averages for several experiments

| Substance | IC50 [1, 7] [µM] | IC50 (HSV1 [2]; [8]) [µM] | IC50 [3, 9] [µM] | IC50 (HSV1 [2]; 1 h) [µM] | also measured |
| --- | --- | --- | --- | --- | --- |
| ARLAEYHAKATEHLSTLSEKAK [apoA1-H8] | > 54 | > 40 | > 54 |  |  |
| CKNKEKKCCKNKEKKC [apoH(281-288)dp] | > 54 | > 40 | > 54 |  |  |
| DWLKAFYDKVAEKLKEAF [apoA1-18A, reference compound] |  |  |  |  | IC50 (HSV1 [2]; read-out: IC50 concentration against HSV1, plaque reduction assay, 95%CI 31.9 - 41.1 μM): 36.5 µM |
| GERLRARMEGERLRARME [apoE(211-219)dp] | > 54 |  | > 54 | > 40 |  |
| HMLDVMQDHFSRASSIIDEL [apoJ151-170] | > 54 |  | > 54 | > 40 |  |
| KFMETVAEKALQEYRK [apoJ409-424] | > 54 | > 40 | > 54 |  |  |
| LQVAERLTRKYNELLKSYQ [apoJ311-329] | > 54 | > 40 | > 54 |  |  |
| LRKLRKRLLLRKLRKRLL-NH2 [apoE(141-149)dp, reference compound] |  |  |  | 16.5 | haemolytic activity (human red blood cells [4]): non-haemolytic; IC50 ([1]; ATCC 6538): 9 µM; IC50 ([3]; ATCC 9027): 2.5 µM |
| LRKLRKRLLRDADDLQKRLA [apoE141-162] | > 54 |  | > 54 | > 40 |  |
| NFHAMFQPFLEMIHEAQQ [apoJ219-236] | > 54 | > 40 | > 54 |  |  |
| PLGEEMRDRARAHVDALRTHLA [apoA1-H6] | > 54 | > 40 | > 54 |  |  |
| PVLDEFREKLNEELEALKQKMK [apoA1-consensus] | > 54 | > 40 | > 54 |  |  |
| PYLDDFQKKWQEEMELYRQKVE [apoA1-H4] | > 54 | > 40 | > 54 |  |  |
| PYSDELRQRLAARLEALKENGG [apoA1-H7] | > 54 | > 40 | > 54 |  |  |
| RALVDTLKFVTQAEGAK [apoB1000-1016] | > 54 | > 40 | > 54 |  | antiviral activity against HSV1 (in words) (HSV1 [2]; plaque reduction assay in Vero cells): inactive |
| RDADDLQKRRDADDLQKR [apoE(150-158)dp] | > 54 |  | > 54 | > 40 |  |
| RLRARMEEMRLRARMEEM [apoE(213-221)dp] | > 54 |  | > 54 | > 40 |  |
| RLTRKRGLKRLTRKRGLK [apoB(3359-3367)dp] | > 54 |  | > 54 | > 40 |  |
| VTDYGKDLMEKVKEWLNS [apoAII 18-30+] | > 54 | > 40 | > 54 |  |  |
| VTDYGKDLMEKVKSPELQ [apoAII 18-35] | > 54 | > 40 | > 54 |  |  |
| WRWRKRWRKWRWRKRWRK [apoBdpL/R-W] |  |  |  |  | haemolytic activity (human red blood cells [5]): non-haemolytic; toxicity against TZMbl cells (TZMbl cells): no detectable toxicity |
| apoE(141-149): nonomer peptide of the apoE receptor binding region (LRKLRKRLL; UniProt P02649 159-167, looked up, fragment) |  |  |  |  | anti-infective activity (in words) (HSV1 [6]): inactive |

— article PMC2855520, “Anti-infective activity of apolipoprotein domain derived peptides in vitro: identification of novel antimicrobial peptides related to apolipoprotein B with anti-HIV activity” (BMC Immunology, 2010)
